The text below walks through data of patent publication US9956319B2, “Compositions useful as antibiofilm or antimicrobial agents and methods using same” (BAYLOR COLLEGE OF MEDICINE, priority 2012, dated 2018).

Molecules are shown by their SMILES.

Holding throughout (format): cell-based
The subject of one experiment is Escherichia coli. Briefly: Bacterial colony counts extracted from impregnated central venous catheters after incubation in bacterial suspension. To be noted: catheter impregnated with 50 mg/ml, 10^5 cfu/ml suspension in TSB, 37° C., 24 hours. The procedure: (§1) In this example, segments of 7 French triple lumen polyurethane central venous catheters were impregnated with α-lipoic acid using the method described elsewhere (U.S. Pat. No. 6,589,591) and were subjected to zones of inhibition. Briefly, α-lipoic acid was dissolved in 88% formic acid (at a final solution concentration of 50 mg/ml). 85% ortho-Phosphoric acid and glycerol were then added to the solution at 79:8:13 (v/v/v) (formic acid:ortho-phosphoric acid:glycerol). After mixing the solution, 300 mg/ml of potassium chloride was added to the final solution and mixed.
(§2) Catheter segments were then placed in the impregnating solution at 55° C. with agitation for 1 hour in the dark. Catheter segments were then removed from the solution and dried under a fume hood overnight in the dark. Catheter segments were rinsed with deionized water the next day and let dry for another 18 hours in the dark. After the impregnation process and drying, one-centimeter segments of impregnated catheters were individually placed in 1 ml of 10^5 cfu/ml suspensions of methicillin-sensitive Staphylococcus epidermidis (MSSE), methicillin-resistant Staphylococcus epidermidis (MRSE), methicillin-resistant Staphylococcus aureus (MRSA), Klebsiella pneumoniae, Escherichia coli, or Proteus mirabilis in trypticase soy broth (TSB) at 37° C. for 24 hours. One-centimeter segments of non-impregnated catheters were also incubated individually in each bacterial suspension at 37° C. for 24 hours as controls. Catheter segments were removed from each bacterial suspension after this period, shaken to remove excess broth containing free-floating bacteria from their surfaces, placed in 1 ml of normal saline, sonicated for 5 minutes, and vortexed for 30 seconds.
(§3) Aliquots of each suspension and subsequent dilutions were cultured quantitatively.

The next experiment relates to Klebsiella pneumoniae I. The experiment is described as above. To be noted: catheter impregnated with 50 mg/ml, 10^5 cfu/ml suspension in TSB, 37° C., 24 hours. The procedure: as §1, §2, §3
Experiment [1] relates to methicillin-sensitive Staphylococcus epidermidis (MSSE). Described as above. To be noted: catheter impregnated with 50 mg/ml, 10^5 cfu/ml suspension in TSB, 37° C., 24 hours. As for the experimental part:
as §1, §2, §3

In the next experiment the test system is Proteus mirabilis. Described as above. Conditions: catheter impregnated with 50 mg/ml, 10^5 cfu/ml suspension in TSB, 37° C., 24 hours. As for the experimental part: as §1, §2, §3
The next experiment relates to Klebsiella pneumoniae. As to the kind of experiment: Bacterial colony counts extracted from impregnated central venous catheters after exposure to bacteria. To be noted: catheter impregnated with 25 mg/ml, 10^5 cfu/ml suspension in TSB, 37° C., 24 hours. The procedure:
(§4) To evaluate the anticolonization/antimicrobial activity of central venous catheters treated with dihydrolipoic acid, segments of 7 French triple lumen polyurethane central venous catheters were impregnated with dihydrolipoic acid using the same patented method described in Example 1 (U.S. Pat. No. 6,589,591) with 25 mg/ml (final solution volume) of the agent. After the impregnation process and drying, Catheter segments were then placed in the impregnating solution at 55° C. with agitation for 1 hour in the dark. Catheter segments were then removed from the solution and dried under a fume hood overnight in the dark. Catheter segments were rinsed with deionized water the next day and let dry for another 18 hours in the dark. After the impregnation process and drying, one-centimeter segments of impregnated catheters were individually placed in 1 ml of 10^5 cfu/ml suspensions of MRSE, MRSA, or K. pneumoniae in trypticase soy broth (TSB) at 37° C. for 24 hours. One-centimeter segments of non-impregnated catheters were also incubated individually in each bacterial suspension at 37° C. for 24 hours as controls. […]
as §3

A further experiment relates to Pseudomonas aeruginosa. The experiment is described as above. To be noted: catheter impregnated with 100 mg/ml, 10^5 cfu/ml suspension in TSB, 37° C., 24 hours. The procedure: as §4, with “lipoamide,” for “dihydrolipoic acid,”, “lipoamide” for “dihydrolipoic acid”, “100” for “25”, “P. aeruginosa” for “K. pneumoniae”
as §3

Take `O=C(O)CCCCC1CCSS1` (stereo not drawn) [Lipoic acid, 1,2-dithiolane-3-pentanoic acid]: the “Bacterial colony counts extracted from central venous catheters” value in the experiment with Escherichia coli is 1.4 × 10^4; in the experiment with Klebsiella pneumoniae I it was 1.1 × 10^6; in experiment [1], 10; with Proteus mirabilis it was 0.
Consider `O=C(O)CCCCC(S)CCS` (stereo not drawn) [Dihydrolipoic acid, 6,8-dimercaptooctanoic acid], for which the “Mean bacterial colony counts extracted from catheter” value with Klebsiella pneumoniae is listed as 280000.
As for `NC(=O)CCCCC1CCSS1` (stereo not drawn) [Lipoamide, lipoamide], the “Mean bacterial colony counts extracted from catheter” value in the experiment with Pseudomonas aeruginosa turned out to be 210000.
